Assay results reported in patent publication US20020072499A1, “Treatment with small peptides to effect antifibrotic activity” (Histatek, Inc., priority 1999, published 2002).
Peptide text beside a SMILES is read from it. * marks the point of attachment. For = O=C*

Legend:
[1] = system: BALB/c mice; settings: mouse, in vivo
[2] = system: murine model of allergen-induced chronic asthma subjected to repeated allergic challenge (Balb/C mice); settings: mouse, in vivo
Procedure: This example reports the results of tests wherein mice having induced chronic asthma and having been treated in accord with the present invention are subsequently further challenged intranasally (“IN”) with OVA. Materials were the same as in Example 1. Balb/C mice were repeatedly immunized with OVA over a six month period as in Example 1. Thereafter, the mice were treated with 50 μg of HKX per dose intranasally for eight doses over a 16 day period, as in example 1. Then, a further regimen administered a 50 μg dose of HK-X 15-30 minutes prior to intranasal OVA challenge. This regimen was repeated for a total of three days. On the day after the last treatment the mice were sacrificed. HK-X was prepared in the same manner as in Example 1. […] The trachea and left lung (upper and lower lobes) were collected and fixed in 10% formalin at 20° C. for 15 hr. After embedding in paraffin, the tissues were cut into 5 μm sections. Eosinophils were stained in the lung tissue with Modified Discombe's Solution. […] Occlusion of the airway diameter by mucus was assessed on a semiquantitative scale ranging from 0 to 5+. For each mouse, individuals blinded to the protocol design assessed 10 airway sections randomly distributed throughout the left lung for mucus occlusion by morphometric analysis. […]

[3] = system: murine model of allergen-induced chronic asthma (OVA immunized BALB/c mice); settings: mouse, in vivo
Source text: The chronic murine model of asthma was used to test the effects of f-Met-Leu-Phe-Phe (HK-X) on persistent asthma. This murine system is a model of chronic asthma where there is enormous infiltration of inflammatory cells in association with outer boundaries of the airway basal lamina. An immunization period of five (5) months during which mice were subjected to an initial immunization procedure during the first month followed by weekly intranasal challenges with OVA established a condition of persistent asthma in the mice. […] Immunized mice were treated with HK-X eight times over a sixteen day period (i.e., every other day). […]
Airway Plug scores—by using a scoring system from + to ++++, the severity of mucus secretion into medium and large-sized airways could be measured according to the previous report (Henderson et al., J. Exp. Medicine, vol. 1-84, pp. 1483-94, Oct. 1996).
Fraction of Epithelial Cells Containing Mucous Granules—was evaluated by randomly counting the number of epithelial cells containing mucus out of 100 epithelial cells in medium to large airways (600 μm to 1,000 μm diameters). A total of 10 fields were counted in different lung lobes and the mean score was tabulated. […]
Numbers of various cell types—eosinophils and neutrophils were quantified by counting the numbers per high power field (40×) in an area of 2,200 u^2 in association with airways. […]

[4] = in vivo; settings: mouse
Procedure: The HK-X/OVA group of animals received HK-X dosage of 0.4 mg/Kg body weight (50 ug per 20 gm body weight per day) while the saline group received the same dosage of HK-X without OVA. […] Therefore, to maintain the plasma levels during the course of the allergen challenge, these mice received additional HK-X doses intranasally immediately before OVA challenge.

With `CSCC[C@H](NC=O)C(=O)N[C@@H](CC(C)C)C(=O)N[C@@H](Cc1ccccc1)C(=O)N[C@@H](Cc1ccccc1)C(=O)O` [HK-X, f-Met-Leu-Phe-Phe] (For-MLFF-OH; C-terminus assumed) the “adverse reactions or signs of sickness” value [1] was “No adverse reactions or signs of sickness were observed”, the “number of eosinophils in the lung tissues” value [2] was 0.75±0.18 cells per 2,200 μm^2 and the “pulmonary tissue of control mice administered HK-X in saline” value [2] was “free of inflammatory cells and fibrotic collagen deposits”. The “pulmonary tissue of control mice administered HK-X in saline” value [3] was “free of inflammatory cells and fibrotic collagen deposits” and the half-life [4] was less than 30 min.
